Tests used:
[1] = system: MT4; assay: Concentration required to reduce the viability of mock-infected cells by 50%; determined by MTT method.; type: functional; conditions: Homo sapiens
[2] = system: MT4; assay: Concentration required to protect MT-4 cells from HIV-1 induced cytopathogenicity by 50%; determined by MTT method; type: functional, cell-based; conditions: Homo sapiens
[3] = system: MT4; assay: (§1) Selective index as the ratio of CC50 and EC50; type: functional
[4] = molecular target: Human immunodeficiency virus type 1 reverse transcriptase (Human immunodeficiency virus 1) (UniProt Q72547); assay: Dose required to inhibit HIV-1 reverse transcriptase activity of wild-type enzyme by 50%
[5] = molecular target: T1, Human immunodeficiency virus type 1 reverse transcriptase (Human immunodeficiency virus 1, UniProt Q72547); assay: Concentration required to inhibit HIV-1 reverse transcriptase activity of wild-type enzyme; type: functional
[6] = system: Human immunodeficiency virus type 1 reverse transcriptase (Human immunodeficiency virus 1), Q72547 [K103N]
[7] = system: Human immunodeficiency virus type 1 reverse transcriptase (Human immunodeficiency virus 1), Q72547 [L100I]
Description: Dose required to inhibit HIV-1 reverse transcriptase activity ( L100I mutant) by 50%

[8] = system: Human immunodeficiency virus type 1 reverse transcriptase (Human immunodeficiency virus 1), Q72547 [V179D]
Description: Dose required to inhibit HIV-1 reverse transcriptase activity (V179D mutant) by 50%

[9] = system: Human immunodeficiency virus type 1 reverse transcriptase (Human immunodeficiency virus 1), Q72547 [Y181I]
[10] = system: Human immunodeficiency virus type 1 reverse transcriptase (Human immunodeficiency virus 1), Q72547 [R221A]
Description: Dose required to inhibit HIV-1 reverse transcriptase activity (Y188L mutant) by 50%

[11] = molecular target: Human immunodeficiency virus type 1 reverse transcriptase (Human immunodeficiency virus 1) (UniProt Q72547)
Description: Dose required to inhibit HIV-1 reverse transcriptase activity (wild-type) by 50%

[12] = system: Human immunodeficiency virus type 1 reverse transcriptase (Human immunodeficiency virus 1), Q72547 [L100I]; assay: Dose required to inhibit HIV-1 reverse transcriptase activity (L100I mutant) by 50%
[13] = system: Human immunodeficiency virus type 1 reverse transcriptase (Human immunodeficiency virus 1), Q72547 [K103N]; assay: Dose required to inhibit HIV-1 reverse transcriptase activity (K103N mutant) by 50%
[14] = molecular target: T1, Human immunodeficiency virus type 1 reverse transcriptase; assay: Concentration required to inhibit HIV-1 reverse transcriptase activity (wild-type) enzyme
[15] = system: MT4; assay: as §1; type: functional, Human immunodeficiency virus 1
[16] = molecular target: T1, Human immunodeficiency virus type 1 reverse transcriptase; assay: Concentration required to inhibit HIV-1 reverse transcriptase activity (wild-type) by 50%; type: functional

| Structure (SMILES) | CC50 [1] [µM] | EC50 [2] [µM] | SI [3] | also measured |
| --- | --- | --- | --- | --- |
| Cc1ncc([N+](=O)[O-])n1CCOC(c1cccs1)c1ccccc1Cl (stereo unspecified) | > 100 | 1.9 | >52.6 |  |
| Cc1ncc([N+](=O)[O-])n1CCNC(c1ccccc1)c1ccccc1Cl (stereo unspecified) | > 100 | 90 | >1.1 |  |
| Cc1ncc([N+](=O)[O-])n1CCOC(c1ccccc1)c1ccco1 (stereo unspecified) | > 100 | 0.1 | >840 |  |
| Cc1cccc(C(SCCn2c([N+](=O)[O-])cnc2C)c2ccccc2)c1 (stereo unspecified) | > 100 | 3 | >33.3 |  |
| Cc1ncc([N+](=O)[O-])n1CCNC(c1ccccc1)c1ccc(F)cc1 (stereo unspecified) | > 100 | 92 | >1.1 |  |
| Cc1ncc([N+](=O)[O-])n1CCOC(c1cccs1)c1ccccc1F (stereo unspecified) | > 100 | 0.12 | >833 |  |
| Cc1ncc([N+](=O)[O-])n1CCOC(c1ccccc1)C1CCCCC1 (stereo unspecified) | > 100 | 0.3 | >333.3 |  |
| Cc1ccccc1C(OCCn1c([N+](=O)[O-])cnc1C)c1cccs1 (stereo unspecified) | 92 | 0.45 | 204 |  |
| Cc1ccc(C(NCCn2c([N+](=O)[O-])cnc2C)c2ccccc2)cc1 (stereo unspecified) | > 100 | 44 | >2.3 |  |
| Cc1ncc([N+](=O)[O-])n1CCOC(c1ccccc1)c1ccc(Cl)s1 (stereo unspecified) | > 100 | 1.2 | 8.33 |  |
| Cc1ncc([N+](=O)[O-])n1CCNC(c1ccccc1)c1cccc(Cl)c1 (stereo unspecified) | > 100 | 2.1 | >47.6 |  |
| Cc1ncc([N+](=O)[O-])n1CCSC(c1ccccc1)c1ccccc1Cl (stereo unspecified) | > 100 | 12 | >8.3 |  |
| O=[N+]([O-])c1cncn1CCOC(c1ccccc1)c1ccccc1 | > 100 | > 100 |  |  |
| Cc1ncc([N+](=O)[O-])n1CCOC(c1ccccc1)c1ccccc1 | > 100 |  | >500 |  |
| Cc1ncc([N+](=O)[O-])n1CCSC(c1ccccc1)c1cccc(Cl)c1 (stereo unspecified) | > 100 | 64 | >1.6 |  |
| Cc1ncc([N+](=O)[O-])n1CCSC(c1ccccc1)c1ccccc1 | > 100 | 1.2 | >83.5 | ID50 [4]: 10.6%; EC50 [5]: 2.3 µM |
| Cc1ccnc2c1NC(=O)c1cccnc1N2C1CC1 |  |  |  | ID50 [6]: 7 µM; ID50 [7]: 9 µM; ID50 [8]: 0.3 µM; ID50 [9]: 36 µM; ID50 [10]: 18 µM; ID50 [11]: 0.4 µM |
| Cc1ncc([N+](=O)[O-])n1CCOCc1ccccc1 | > 100 | 4.2 | >2.38 |  |
| Cc1ncc([N+](=O)[O-])n1CCS(=O)(=O)C(c1ccccc1)c1ccccc1 | > 100 | 5.2 | >19.3 |  |
| Cc1ncc([N+](=O)[O-])n1CCSCc1ccccc1 | > 100 | 60 | >1.7 |  |

| Structure (SMILES) | CC50 [1] [µM] | EC50 [2] [µM] | SI [3] | also measured |
| --- | --- | --- | --- | --- |
| Cc1ncc([N+](=O)[O-])n1CCOC(c1cccc(Cl)c1)c1cccs1 (stereo unspecified) | 72 | 0.08 | 900 | ID50 [12]: 3.2 µM; ID50 [13]: 5.1 µM; ID50 [8]: 10.8 µM; ID50 [9]: 6.25 µM; ID50 [10]: 15.1 µM; ID50 [11]: 1.17 µM |
| Cc1ncc([N+](=O)[O-])n1CCNCc1ccccc1 | > 100 | > 100 |  |  |
| Cc1ncc([N+](=O)[O-])n1CCOC(c1ccc(Cl)cc1)c1cccs1 (stereo unspecified) | > 100 | 58 | >1.7 |  |
| Cc1nc([N+](=O)[O-])cn1CCOCc1ccccc1 | > 100 | 22 | >4.5 |  |
| Cc1ncc([N+](=O)[O-])n1CCOC(c1ccccc1)c1ccc2ccccc2c1 (stereo unspecified) | > 100 | > 100 |  |  |
| Cc1ncc([N+](=O)[O-])n1CCOC(c1ccc(F)cc1)c1cccs1 (stereo unspecified) | > 100 | 3.1 | >32.3 |  |
| Cc1cccc(C(NCCn2c([N+](=O)[O-])cnc2C)c2ccccc2)c1 (stereo unspecified) | > 100 | 65 | >1.5 |  |
| O=[N+]([O-])c1cn(CCOC(c2ccccc2)c2ccccc2)cn1 | > 100 | 78 | >1.3 |  |
| Cc1ccc(C(OCCn2c([N+](=O)[O-])cnc2C)c2cccs2)cc1 (stereo unspecified) | > 100 | 0.3 | >3333 |  |
| Cc1ncc([N+](=O)[O-])n1CCSC(c1ccccc1)c1cccc(F)c1 (stereo unspecified) | > 100 | 80 | >1.2 |  |
| Cc1ncc([N+](=O)[O-])n1CCOC(c1ccccc1)c1cccnc1 (stereo unspecified) | > 100 | 0.08 | >1250 |  |
| Cc1ncc([N+](=O)[O-])n1CCSC(c1ccccc1)c1ccccc1F (stereo unspecified) | > 100 | 5 | >20 |  |
| Cc1ncc([N+](=O)[O-])n1CCOC(c1ccccc1)c1cccs1 (stereo unspecified) | > 100 | 0.03 |  | ID50 [6]: 8.25 µM; EC50 [14]: 0.03 µM; ID50 [7]: 5.5 µM; ID50 [8]: 1.9 µM; ID50 [9]: > 50 µM; SI [15]: >3333; ID50 [10]: 30.2 µM; ID50 [11]: 0.37 µM |
| Cc1ncc([N+](=O)[O-])n1CCOC(c1cccs1)c1cccc(F)c1F (stereo unspecified) | > 100 | 0.06 | >1667 |  |
| Cc1ncc([N+](=O)[O-])n1CCNC(c1ccccc1)c1ccccc1F (stereo unspecified) | > 100 | 50 | >2 |  |
| Cc1ncc([N+](=O)[O-])n1CCOC(c1cccc(F)c1)c1cccs1 (stereo unspecified) | > 100 | 0.14 | >714 |  |
| Cc1ncc([N+](=O)[O-])n1CCNC(c1ccccc1)c1cccc(F)c1 (stereo unspecified) | > 100 | 1.8 | >55.6 |  |
| Cc1ncc([N+](=O)[O-])n1CCNC(c1ccccc1)c1ccccc1 | > 100 | 12 | >8.3 | ID50 [11]: 16.5 µM; EC50 [16]: 8 µM |
| Cc1nc([N+](=O)[O-])cn1CCOC(c1ccccc1)c1ccccc1 | > 100 | 67 | >1.5 |  |
| Cc1ncc([N+](=O)[O-])n1CCN(Cc1ccccc1)C1CCCCC1 | > 100 | 84 | >1.2 |  |

— ChEMBL document CHEMBL1140261, “Novel 1-[2-(diarylmethoxy)ethyl]-2-methyl-5-nitroimidazoles as HIV-1 non-nucleoside reverse transcriptase inhibitors. A structure-activity relationship investigation” (J Med Chem, 2005)
